Here are results for one compound from patent US20250320203A1, “4-(3H-PYRAZOLO[4,3-F]QUINOLIN-7-YL)-N-(2-(DIMETHYLAMINO)ETHYL)BENZAMIDE- OR HYDROXAMIC ACID COMPOUNDS, COMPOSITIONS, AND METHODS OF USE” (Purdue Research Foundation, priority 2022, published 2025).

Some results are limits rather than exact numbers.

One series has as its target T1, FLT3-D835Y (Homo sapiens, UniProt P36888, D835Y).
T1 construct: purchased Reaction Biology (contract research service)
T1 sequence (P36888 27-993 D835Y): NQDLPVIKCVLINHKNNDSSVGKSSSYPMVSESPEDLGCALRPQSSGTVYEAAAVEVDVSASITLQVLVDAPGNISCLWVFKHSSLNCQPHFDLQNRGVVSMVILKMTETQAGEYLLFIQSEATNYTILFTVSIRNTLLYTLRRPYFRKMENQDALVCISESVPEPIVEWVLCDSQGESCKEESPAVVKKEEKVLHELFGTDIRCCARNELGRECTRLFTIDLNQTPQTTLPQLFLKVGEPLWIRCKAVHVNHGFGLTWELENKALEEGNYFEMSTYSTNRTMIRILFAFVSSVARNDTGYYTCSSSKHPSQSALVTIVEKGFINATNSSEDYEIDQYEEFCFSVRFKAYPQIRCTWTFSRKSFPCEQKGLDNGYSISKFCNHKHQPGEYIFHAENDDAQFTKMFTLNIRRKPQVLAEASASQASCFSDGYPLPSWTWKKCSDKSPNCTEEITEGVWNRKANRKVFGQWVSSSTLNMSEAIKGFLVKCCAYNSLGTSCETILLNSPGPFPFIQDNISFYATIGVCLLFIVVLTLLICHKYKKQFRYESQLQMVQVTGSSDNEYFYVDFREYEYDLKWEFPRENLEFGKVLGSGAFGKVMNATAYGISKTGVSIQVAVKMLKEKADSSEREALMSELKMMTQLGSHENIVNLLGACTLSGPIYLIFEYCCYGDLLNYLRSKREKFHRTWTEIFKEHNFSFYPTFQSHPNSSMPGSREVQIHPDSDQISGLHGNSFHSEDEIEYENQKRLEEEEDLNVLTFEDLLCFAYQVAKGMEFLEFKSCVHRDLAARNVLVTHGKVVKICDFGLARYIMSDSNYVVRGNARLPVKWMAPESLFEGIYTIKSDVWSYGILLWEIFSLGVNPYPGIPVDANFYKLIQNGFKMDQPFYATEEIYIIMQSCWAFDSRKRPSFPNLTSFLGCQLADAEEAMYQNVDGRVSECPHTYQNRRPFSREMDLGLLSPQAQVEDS
As to the kind of experiment: FLT3 (D835Y) enzyme inhibition, 10-dose IC50 (Reaction Biology). It is filed as biochemical. As to conditions: 10 μM ATP.

The subject of a further series is DNA. Put plainly: DNA intercalation assay. As to conditions: doses from 1 mM to 10 nM. On the procedure: FIG. 16 is a graph of data from a DNA intercalation assay. […] Data was fitted to a non-linear regression equation using GraphPad Prism 9.0 software (each data point represents the mean of triplicates).
To move compounds forward for further development, DNA intercalation assays were conducted to eliminate compounds with high affinity for DNA.

Series [1] concerns histone H3 (Thr3) phosphorylation by haspin. As to the kind of experiment: Western blot, histone H3 (Thr3) phosphorylation by haspin in Molm-14 cells. It is filed as cell-based, human. As to conditions: 24 hours, HSK205 5, 20 or 100 nM, gilteritinib 100 nM. On the procedure: Whether Compound HSK205 does indeed inhibit haspin in AML cells was then evaluated, and immunoblotting was performed to confirm inhibition of histone H3 (Thr3)phosphorylation by haspin (FIG. 13A). […] The samples were subsequently analyzed for the phosphorylation of histone H3 (Thr3).
(§1) Acute myeloid leukemia cells (Molm-14) were incubated with various concentrations of compound as specified. Cells were collected and lysed, and protein concentrations were quantified relative to BSA standards. After protein denaturation, proteins were separated via SDS-PAGE electrophoresis and transferred to NC membranes. After blocking, overnight incubation with specific primary antibodies, and room temperature incubation for 2 hours with peroxidase-conjugated secondary antibodies, peroxidase activity was detected with SuperSignal West Pico reagents (Thermo Scientific) using a CCD camera LAS-4000 (Fujifilm). Bands were normalized using housekeeping gene, Actin. Values reported represent the means of triplicates and error bars represent SD. All specific antibodies were purchased from Cell Signaling.

The target in a further series is T2, FLT3-ITD (Homo sapiens, UniProt P36888).
T2 sequence (P36888 1-993): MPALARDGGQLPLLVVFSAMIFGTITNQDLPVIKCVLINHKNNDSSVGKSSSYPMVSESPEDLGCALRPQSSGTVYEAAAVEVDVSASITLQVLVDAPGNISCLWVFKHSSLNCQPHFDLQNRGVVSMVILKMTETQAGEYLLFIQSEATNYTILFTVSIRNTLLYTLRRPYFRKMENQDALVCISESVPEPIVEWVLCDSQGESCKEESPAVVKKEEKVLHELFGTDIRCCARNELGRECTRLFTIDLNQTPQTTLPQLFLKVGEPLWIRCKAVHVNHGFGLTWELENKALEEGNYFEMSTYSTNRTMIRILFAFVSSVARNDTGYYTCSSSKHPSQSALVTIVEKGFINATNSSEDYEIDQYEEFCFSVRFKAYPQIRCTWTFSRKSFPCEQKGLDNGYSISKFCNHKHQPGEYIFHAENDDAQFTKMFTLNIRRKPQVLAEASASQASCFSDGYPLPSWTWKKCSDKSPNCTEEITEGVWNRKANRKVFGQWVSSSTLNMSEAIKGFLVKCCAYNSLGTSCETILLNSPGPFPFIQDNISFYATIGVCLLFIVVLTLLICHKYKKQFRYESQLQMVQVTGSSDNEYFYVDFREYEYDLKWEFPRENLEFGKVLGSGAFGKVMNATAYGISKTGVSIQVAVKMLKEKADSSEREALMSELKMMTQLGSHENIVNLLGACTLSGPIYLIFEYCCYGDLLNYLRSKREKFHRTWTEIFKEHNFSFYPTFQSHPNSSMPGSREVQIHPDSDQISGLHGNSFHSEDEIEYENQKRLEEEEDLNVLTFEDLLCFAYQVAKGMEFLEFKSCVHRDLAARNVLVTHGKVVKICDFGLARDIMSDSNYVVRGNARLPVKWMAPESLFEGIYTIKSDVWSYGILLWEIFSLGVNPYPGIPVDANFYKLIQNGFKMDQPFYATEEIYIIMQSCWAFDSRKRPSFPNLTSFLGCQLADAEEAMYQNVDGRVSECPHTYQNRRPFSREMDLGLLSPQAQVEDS
As to the kind of experiment: FLT3-ITD enzyme inhibition, 10-dose IC50 (Reaction Biology). The class given is biochemical. As to conditions: 10 μM ATP.

A further series relates to phosphorylated FLT3. Put plainly: Western blot, FLT3 target engagement in Molm-14 cells. It is filed as cell-based, human. As to conditions: Molm-14 cells treated for 2 hours. On the procedure:
as §1
Additionally, FLT3 target engagement in Molm-14 cells was evaluated to confirm the FLT3 inhibition seen in the preliminary kinase screen of Example 4 (Table 1). Cells were treated for 2 hours, harvested, and subsequently analyzed.

Regarding `Cc1c[nH]c(CNC(=O)c2ccc(-c3nc4ccc5[nH]ncc5c4c4c3CCCC4)cc2)n1` [Compound HSK205], the IC50 on FLT3-D835Y and on FLT3-ITD was under 0.5 nM in each case. In the series on DNA, the DNA intercalation entry is “did not intercalate into DNA”. Further, the “phosphorylation of histone H3 (Thr3)” value in series [1] is listed as “effective in reducing phosphyorlation of histone H3 (Thr3)”. Further, in the series on phosphorylated FLT3, the “phosphorylated FLT3” value is “reduction of phosphorylated FLT3”.

Usually IC50 stands for the concentration needed to halve the response being measured. A higher IC50 goes with weaker potency in that assay.
